Measurements reported in the supplement of paper PMC10307832.

Experiments:
Assay in all cases: relative viability (nuclei count vs DMSO), 5 days (fraction); higher = more cells survive
[1] = compound: C1=CC=C(C(=C1)C2=CC=C(C=C2)C3=CSC4=C3C(=C(C(=O)N4)C#N)O)O + Cc1cc(Nc2cc(N3CCN(C)CC3)nc(Sc3ccc(NC(=O)C4CC4)cc3)n2)n[nH]1 [Tozasertib] (partner 0.1 µM)
How it was run: (§1)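 Medians of duplicate plates are given as relative viability. That measure is the nuclei count in treated wells divided by the count in vehicle wells. Counts were taken on 4× images of lung cancer cell lines in 1536-well plates, 5 days after pin-tool dosing the day after seeding with one drug alone or a fixed anchor-drug dose plus five library-drug doses (not always all listed) in √10 steps.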

[2] = compound: C1=CC=C(C(=C1)C2=CC=C(C=C2)C3=CSC4=C3C(=C(C(=O)N4)C#N)O)O + O=C(CCCCCCC(=O)Nc1ccccc1)NO [Vorinostat] (partner 1 µM)
How it was run: as §1

TGX 221 + Linsitinib = compound: CC1=CN2C(=O)C=C(N=C2C(=C1)C(C)NC3=CC=CC=C3)N4CCOCC4 [TGX 221] + C[C@]1(O)C[C@@H](c2nc(-c3ccc4ccc(-c5ccccc5)nc4c3)c3c(N)nccn32)C1 [Linsitinib] (partner 1 µM)
How it was run: as §1

[3] = compound: O=C(CCCCCCNC(=O)c1cnc(N(c2ccccc2)c2ccccc2)nc1)NO [Ricolinostat] + N=C(N)NC(=N)NCCc1ccccc1 [Phenformin] (partner 250 µM)
How it was run: as §1

Cell Line | relative viability ([1]; first compound 0.08 µM) | relative viability ([1]; first compound 0.253 µM) | relative viability ([1]; first compound 0.8 µM) | relative viability ([1]; first compound 2.53 µM) | relative viability ([1]; first compound 8 µM) | relative viability ([2]; first compound 0.08 µM) | relative viability ([2]; first compound 0.253 µM) | relative viability ([2]; first compound 0.8 µM) | relative viability ([2]; first compound 2.53 µM) | relative viability ([2]; first compound 8 µM) | relative viability (TGX 221 + Linsitinib; first compound 0.08 µM) | relative viability (TGX 221 + Linsitinib; first compound 0.253 µM) | relative viability (TGX 221 + Linsitinib; first compound 0.8 µM) | relative viability (TGX 221 + Linsitinib; first compound 2.53 µM) | relative viability (TGX 221 + Linsitinib; first compound 8 µM) | relative viability ([3]; first compound 0.08 µM) | relative viability ([3]; first compound 0.253 µM) | relative viability ([3]; first compound 0.8 µM) | relative viability ([3]; first compound 2.53 µM)
LCLC-97TM1 | 0.22 | 0.187 | 0.164 | 0.222 | 0.187 | 0.614 | 1.42 | 0.636 | 0.724 | 0.431 | 0.145 | 0.187 | 0.199 | 0.167 | 0.188 | 0.314 | 0.417 | 0.45 | 0.204
NCI-H1734 | 0.266 | 0.238 | 0.279 | 0.288 | 0.216 | 0.747 | 0.767 | 0.751 | 0.803 | 0.765 | 0.801 | 0.747 | 0.802 | 0.647 | 0.616 | 0.35 | 0.452 | 0.351 | 0.466
NCI-H661 | 0.359 | 0.386 | 0.357 | 0.356 | 0.369 | 0.803 | 0.836 | 0.772 | 0.84 | 0.6 | 0.486 | 0.472 | 0.363 | 0.457 | 0.362 | 0.27 | 0.285 | 0.262 | 0.302
SK-LU-1 | 0.319 | 0.265 | 0.293 | 0.379 | 0.306 | 0.737 | 0.727 | 0.655 | 0.761 | 0.671 | 0.96 | 0.904 | 0.922 | 1.06 | 0.858 | 0.449 | 0.666 | 0.565 | 0.395
LC-2-ad | 0.502 | 0.539 | 0.487 | 0.429 | 0.425 | 0.627 | 0.643 | 0.705 | 0.722 | 0.654 | 0.786 |  | 0.731 | 0.668 | 0.595 | 0.47 | 0.621 | 0.5 | 0.44
NCI-H1355 | 0.478 | 0.516 | 0.547 | 0.518 | 0.476 | 0.627 | 0.658 | 0.626 | 0.578 | 0.592 | 0.743 | 0.666 | 0.621 | 0.453 | 0.546 | 0.412 | 0.451 | 0.427 | 0.439
NCI-H1793 | 0.374 | 0.331 | 0.354 | 0.337 | 0.34 | 0.58 | 1.05 | 0.497 | 0.634 | 0.681 | 0.768 | 0.616 | 0.531 | 0.467 | 0.474 |  | 0.438 | 0.355 | 0.369
H3255 | 1.04 | 0.727 | 0.213 | 0.868 | 0.559 | 0.823 | 0.863 |  | 0.886 | 0.784 | 0.841 | 0.847 | 0.892 | 0.912 | 0.859 | 0.367 | 0.358 | 0.405 | 0.416
NCI-H2342 | 0.498 | 0.493 | 0.543 | 0.399 | 0.48 | 0.801 | 0.83 | 0.871 | 0.71 | 0.586 |  |  |  |  |  | 0.475 | 0.578 | 0.614 | 0.713
NCI-H838 | 0.264 | 0.271 | 0.285 | 0.309 | 0.268 | 0.749 | 0.691 | 0.775 | 0.704 | 0.744 | 0.917 | 0.819 | 0.841 | 0.836 | 0.618 | 0.48 | 0.689 | 0.64 | 0.571
NCI-H727 | 0.537 | 0.604 | 0.762 | 0.702 | 0.53 | 1.38 | 1.26 | 1.24 | 1.21 | 1.05 | 0.406 | 0.29 | 0.264 | 0.269 | 0.403 | 0.342 | 0.734 | 0.529 | 0.572
UMC-11 | 0.203 | 0.227 | 0.218 | 0.321 | 0.219 |  | 0.352 | 0.409 | 0.381 | 0.412 | 0.966 | 0.979 | 1.13 | 0.987 | 1.04 | 0.273 | 0.344 | 0.271 | 0.194
CAL-12T | 0.272 | 0.334 | 0.305 | 0.337 | 0.282 | 0.65 | 0.817 | 0.884 | 0.743 | 0.643 | 0.803 | 0.72 | 0.758 | 0.513 | 0.626 | 0.489 | 0.548 | 0.559 | 0.517
NCI-H1755 | 0.735 | 0.571 | 0.544 | 0.629 | 0.728 | 0.822 | 0.913 | 0.735 | 0.761 | 0.687 | 0.956 | 0.935 | 0.835 | 0.629 | 0.557 | 0.45 | 0.6 | 0.608 | 0.604
NCI-H1651 | 0.819 | 0.714 | 0.792 | 0.716 | 0.607 | 0.509 | 0.523 | 0.583 | 0.535 | 0.51 | 0.851 | 0.67 | 0.723 | 0.726 | 0.533 | 0.318 | 0.352 | 0.311 | 0.365
NCI-H2170 | 0.71 | 0.709 | 0.875 | 0.721 | 0.634 | 0.9 | 0.819 | 0.921 | 0.778 | 0.616 |  |  |  |  |  | 0.394 | 0.426 | 0.407 | 0.373
NCI-H1915 | 0.428 | 0.484 |  | 0.491 | 0.382 | 0.455 | 0.468 | 0.449 | 0.552 | 0.46 | 1.02 | 1.12 | 1.16 | 1.11 | 1.04 | 0.324 | 0.358 | 0.347 | 0.363
EPLC-272H | 0.223 | 0.194 | 0.227 | 0.22 | 0.247 | 0.466 | 0.387 | 0.357 | 0.401 | 0.42 | 0.973 | 1.12 | 1.02 |  | 1.24 | 0.263 | 0.273 | 0.26 | 0.144

Cell Line | relative viability ([1]; first compound 0.08 µM) | relative viability ([1]; first compound 0.253 µM) | relative viability ([1]; first compound 0.8 µM) | relative viability ([1]; first compound 2.53 µM) | relative viability ([1]; first compound 8 µM) | relative viability ([2]; first compound 0.08 µM) | relative viability ([2]; first compound 0.253 µM) | relative viability ([2]; first compound 0.8 µM) | relative viability ([2]; first compound 2.53 µM) | relative viability ([2]; first compound 8 µM) | relative viability (TGX 221 + Linsitinib; first compound 0.08 µM) | relative viability (TGX 221 + Linsitinib; first compound 0.253 µM) | relative viability (TGX 221 + Linsitinib; first compound 0.8 µM) | relative viability (TGX 221 + Linsitinib; first compound 2.53 µM) | relative viability (TGX 221 + Linsitinib; first compound 8 µM) | relative viability ([3]; first compound 0.08 µM) | relative viability ([3]; first compound 0.253 µM) | relative viability ([3]; first compound 0.8 µM) | relative viability ([3]; first compound 2.53 µM)
NCI-H2087 | 0.213 | 0.258 | 0.225 | 0.244 | 0.2 | 0.336 | 0.672 | 0.685 | 0.764 | 0.918 | 1.07 | 1.05 | 1.16 | 1.03 | 0.94 |  | 0.441 | 0.405 | 0.239
A-427 | 0.188 | 0.209 | 0.248 | 0.224 | 0.215 | 0.923 | 0.861 | 0.864 | 0.904 | 0.859 | 1.05 | 1.02 | 1.1 | 1.12 | 1.02 |  | 0.303 | 0.298 | 0.337
NCI-H460 | 0.395 | 0.429 | 0.345 | 0.461 | 0.296 | 0.529 | 0.339 | 0.866 | 0.924 | 0.582 | 0.677 | 0.641 | 0.693 | 0.622 | 0.592 | 0.389 | 0.512 | 0.494 | 0.476
EBC-1 |  |  |  |  |  |  |  |  |  |  | 0.911 | 0.726 | 0.822 | 0.687 | 0.702 |  |  |  | 
NCI-H23 | 0.395 | 0.32 | 0.373 | 0.449 | 0.316 | 0.541 | 0.559 | 0.572 | 0.525 | 0.242 | 0.471 | 0.532 | 0.525 | 0.531 | 0.477 | 0.72 | 0.749 | 0.8 | 0.706
NCI-H1299 |  |  |  |  |  |  |  |  |  |  | 0.976 | 1.04 | 1.04 | 0.902 | 0.969 |  |  |  | 
NCI-H1650 | 0.325 | 0.386 | 0.417 | 0.442 | 0.486 | 0.462 | 0.546 | 0.498 | 0.531 | 0.435 |  |  |  |  |  | 0.338 | 0.408 | 0.445 | 0.218
ChaGo-K-1 | 0.242 | 0.238 | 0.239 | 0.232 | 0.208 | 0.733 | 0.821 | 0.801 | 0.822 | 0.683 |  |  |  |  |  | 0.537 | 0.494 | 0.46 | 0.513
SW 900 | 0.618 | 0.491 | 0.645 | 0.539 | 0.491 |  | 0.633 | 0.412 | 0.406 | 0.358 |  |  |  |  |  | 0.441 | 0.635 | 0.433 | 0.48
NCI-H1703 |  |  |  |  |  |  |  |  |  |  | 0.678 | 0.522 | 0.48 | 0.487 | 0.636 |  |  |  | 
NCI-H522 | 0.523 | 0.435 | 0.548 | 0.541 | 0.541 | 0.929 | 0.898 | 1.06 | 0.921 | 0.86 |  |  |  |  |  | 0.609 | 0.559 | 0.704 | 0.829
NCI-H1623 | 0.408 | 0.53 | 0.397 | 0.457 | 0.436 |  |  |  |  |  |  |  |  |  |  | 0.559 | 0.582 | 0.557 | 0.556
NCI-H1648 | 0.503 |  | 0.413 | 0.6 | 0.392 |  | 0.319 | 0.876 | 0.593 | 0.391 |  |  |  |  |  |  |  |  | 
NCI-H1563 |  |  |  |  |  |  |  |  |  |  | 1.2 | 1.2 | 0.909 | 0.868 | 0.755 | 0.596 | 0.647 | 0.685 | 0.671
Calu-6 |  |  |  |  |  |  |  |  |  |  | 0.909 | 0.913 | 0.935 | 0.855 | 0.84 |  |  |  | 
A549 |  |  |  |  |  |  |  |  |  |  | 0.491 | 0.451 | 0.391 | 0.432 | 0.456 |  | 0.114 | 0.132 | 0.155
IA-LM |  |  |  |  |  |  | 1.37 | 0.856 | 1 | 0.376 | 0.685 | 0.509 | 0.58 | 0.621 | 0.685 |  |  |  | 
